Entries after “also recorded” stand apart in the source; their conditions may differ.
Legend:
[1] = tested on: renal ischemia/reperfusion; experiment: Kidney ischemia-reperfusion in rats (Example 3); format: in vivo, Lewis rats
Experimental: 25HC3S was dissolved in propylene glycol, at 20 mg/mL, and stored at room temperature as the stock solution. Before use, 3 parts of PBS was mixed with 1 part of DV928 stock solution. The final concentration for injection was 5 mg/ml. Preparation of the Formulation for oral gavage: […]
25HC3S was suspended in 0.5% carboxymethylcellulose (CMC) containing 0.05% tween-80, at 10 mg/mL, and stored at room temperature and mixed well before use.
Adult (9- to 11-week-old) male Lewis (LEW, RE11) rats, 225-250 gram, were housed in a controlled 12-hr light-dark cycle environment and allowed free access to water and regular rat chow. All rats were anesthetized with pentobarbital 40 mg/kg i.p.
Ischemia of the left kidney was performed by transient occlusion of the left renal artery and vein, and ureter for 50 min with a vascular micro-clip. The skin was temporarily closed during the ischemia period, and the rats were put on a heating pad maintained at a temperature of 37° C. At reperfusion, the right kidney was removed before closing the abdomen with 4-0 silk suture.
Animals were randomly divided into 5 groups: • Group A. 25HC3S—i.p. dosing (as pre-treatment) N=12 • Group B. 25HC3S—i.p. dosing (as post-treatment) N=12 • Group C. 25HC3S—oral dosing (as pre-treatment) N=12 • Group D. Vehicle control, i.p. (as pre-treatment) N=6 • Group E. Vehicle control, oral (as pre-treatment) N=6
Rats in the pre-treatment groups received active or vehicle 1 day before (Day −1) the surgical intervention (I/R event) and continued for a total of 4 days. Rats in the post-treatment group received the 1st treatment at 30 min after the renal artery occlusion and continued for a total of 3 days. Blood samples were taken from all rats 2 days before the surgery (as baseline), 3 days after the surgery, and 7 days after the surgery for serum creatinine and blood urea nitrogen (BUN) analysis. All rats were sacrificed on Day 7.

[2] = tested on: high dose of acetaminophen (ATMP); experiment: ATMP 600 mg/kg in mice, 10-day mortality and liver function markers (Example 1B); format: in vivo
Experimental: In another set of experiments, female mice were peritoneally-injected with acetaminophen (600 mg/kg, in 20% EtOH in PBS) and were then further treated by peritoneal injection of 25HC3S (25 mg/kg in 10% PG in PBS) 2 and 24 hrs later. Control mice received ATMP without 25HC3S. Mortality was monitored for 10 days.

[3] = tested on: sepsis induced by the endotoxin lipopolysaccaride (LPS); experiment: Sepsis induced by LPS, 25HC3S given 2 hrs after LPS (Examples 6A and 6B); format: in vivo, C57BL/6J mice; settings: 25HC3S 25 mg/kg 2 hrs after LPS, vs vehicle
Experimental: To examine the effect of 25HC3S on sepsis induced by the endotoxin lipopolysaccaride (LPS), 11-week-old female C57BL/6J mice were IV-injected with LPS (30 mg/kg or 40 mg/kg, in PBS) 2 hrs before being treated by administration of 25HC3S (25 mg/kg, 10% propylene glycol in PBS), and mortality was monitored (% survival).

[4] = tested on: acute liver failure induced by acetaminophen; experiment: Acetaminophen (ATMP) 500 mg/kg acute liver failure in mice, serum markers (Example 1A); format: in vivo
Experimental: (§1) Female mice were peritoneally-injected with acetaminophen (500 mg/kg, in 10% ethanol in PBS) either 0.5 or 2 hrs before being treated by administration of 25HC3S (20 or 25 mg/kg, 10% propylene glycol in PBS). Sera were collected 24 or 48 hrs following acetaminophen administration and enzymatic activities and other serum parameters were measured.

[5] = tested on: transient focal cerebral ischemia (tMCAO); experiment: Brain stroke study, transient middle cerebral artery occlusion (tMCAO) in rats (Example 5); format: in vivo, Sprague Dawley rats; settings: for tissue viability (T2 relaxation time): lower T2 in ms vs vehicle
Experimental: Transient focal cerebral ischemia was produced by right side middle cerebral artery (MCA) occlusion in male Sprague Dawley rats under anesthesia. After 120 min of ischemia, the MCA blood flow was restored. The procedure was therefore named tMCAO. All rats were given an i.p. injection of saline (4 ml per rat) after the surgery. Three groups of rats were used in the study: • Group A: 12 sham operated rats received vehicle by ip injection • Group B: 12 tMCAO rats received vehicle by ip injection • Group C: 12 tMCAO rats received 25HC3S by ip injection The parameters measured were as follows: • Mean body weight over time • Mean 7- and 20-point Neuroscore over time • Limb Placing test results over time • Mean infarct volumes (mm3), edema volumes (mm3) and T2-relaxation times (ms) Behavioral testing was conducted at 24 hours, 3 days, and 7 days post transient middle cerebral artery occlusion (tMCAO). Both 20-point Neuroscore and 7-point Neuroscore tests were conducted to assess post-ischemic motor and behavioral deficits. The Limb Placing test was conducted to assess the sensory motor integration of fore- and hind-limbs responses to tactile and proprioceptive stimulation. MRI acquisitions in vivo for all rats were performed at 24 h and 7 days after tMCAO.Lesion size, tissue viability (T2 in milliseconds), and brain edema were determined using absolute T2-MRI. Eighteen (18) coronal slices of thickness 1 mm were acquired using field-of-view imaging matrix. Absolute T2-values from contra-lateral cortex were used as a reference for tissue viability. All MRI data were analyzed using Matlab software. The infarct volume/oedema analysis was done by an observer blinded to the treatment groups. Results

[6] = tested on: heart ischemia-reperfusion injury; experiment: Heart ischemia-reperfusion in mice (Example 4); format: in vivo, C67B16 mice
Experimental: Wild-type C67B16 mice, both males and females, were used in the experiment. After anesthesia, the thorax of each mouse was opened and the heart was subject to a 45-minute ischemic period by ligation of the left anterior descending coronary artery, and then reperfusion was allowed by removing the coronary arterial obstruction. The thorax was closed, and mice were allowed to recover for 24 hours. All animals were sacrificed at the end of the study, 24 h after the procedure, to gain access to the heart tissue. The heart was frozen, sectioned into slices, and then stained to determine the infarct size.
Given the experience that 25-30% of the animals may die within the 24-hour period because of the procedure (occlusion of coronary artery), all groups included 12 animals. The vehicle treated group (12 mice) was compared with 25HC3S treated groups (24 mice). One group of mice received the drug (25HC3S) just before ischemia/reperfusion (FR) and another group received drug about 16-20 h before FR. Administration was via the i.p. route with either vehicle (10% propylene glycol in PBS) or 25HC3S at a dose of 25 mg/kg in the same vehicle.

[7] = Level of 25HC3S in blood and tissues after administration (Example 1A, FIG. 3); format: in vivo, mice
Experimental: FIGS. 3A and B. Concentration of 25HC3S in A, blood and B, the indicated tissues of rats subjected to high levels of ATMP.
as §1
FIGS. 3A and 3B show the level of 25HC3S in blood (3A) and the indicated tissues (3B) at the indicated times after administration.

mortality induced by LPS = experiment: Mortality induced by LPS, pretreatment with 25HC3S (Example 6C); format: in vivo, C57BL/6J mice; settings: LPS 4 mg/kg IV; 25HC3S 50 mg/kg 2 hrs before LPS; as of day 3; control 40%
Experimental: A further experiment to examine the effects of pretreatment of 25HC3S on mortality induced by LPS was conducted. In this experiment, 11-week-old female C57BL/6J mice were IV-injected with LPS (4 mg/kg in PBS). The mice were treated by administration of 25HC3S (50 mg/kg, 10% propylene glycol in PBS) 2 hrs before LPS administration, and mortality (% survival) was monitored. The results are presented below and in FIG. 9C.

[8] = Human Phase I single dose ascending study (Example 7); format: in vivo
Experimental: A randomized, double blind, and placebo controlled single dose ascending First-in-human Phase 1 study was conducted. The active agent, 25HC3S, was suspended at 30, 100, 300, and 600 mg in 60 mL of ORA-Blend® SF sugar-free flavored oral suspending vehicle. As Placebo dosage form, calcium carbonate, USP, was suspended at 30, 100, 300, and 600 mg in 60 mL of ORA-Blend® SF sugar-free flavored oral suspending vehicle. The suspension, either active or Placebo, was orally administered to each subject. Each dose group had 4 subjects receiving a single dose of active and 2 subjects receiving a single dose of Placebo. All subjects were monitored by health professionals for any potential adverse events for 7 days following administration.

[9] = tested on: acute liver failure, as induced by PO administration of acetaminophen; experiment: ATMP 300 mg/kg PO in mice, serum chemistry and body weight (Example 2); format: in vivo; settings: 25HC3S 25 mg/kg IP or PO, 1 hour and 24 hours after ATMP 300 mg/kg PO; vs route-matched vehicle
Experimental: Mice were challenged with acetaminophen (300 mg/kg PO) and then treated with vehicle or 25HC3S (25 mg/kg) by IP injection or PO gavage, one (1) hour and 24 hours after acetaminophen challenge. Measurements and samples included whole blood for serum and clinical chemistry analysis (ALT, AST, ALK, LDH, BUN and glucose) and livers and kidneys for formalin fixation and histology.

[10] = oral gavage pretreatment, higher dose, Day 3, to a lesser extent than injection
[11] = post-treatment by injection, first dose 30 min after occlusion, 3 days
[12] = pretreatment by IP injection a day before surgery, once daily 4 days
[13] = 25HC3S 20 or 25 mg/kg 2 hours after ATMP 500 mg/kg, within 24 hrs
[14] = 24 hours post tMCAO, vs vehicle, difference not statistically significant
[15] = 24 hours, 3 days, 7 days post tMCAO, vs vehicle, trend of better scores

C[C@H](CCCC(C)(C)O)[C@H]1CC[C@H]2[C@@H]3CC=C4C[C@@H](OS(=O)(=O)O)CC[C@]4(C)[C@H]3CC[C@]12C [25HC3S, 5-cholesten-3, 25-diol, 3-sulfate]
serum BUN level [1, 10]: reduced | serum creatinine level [1, 10]: reduced | serum BUN level [1, 11]: reduced | serum creatinine level [1, 11]: reduced | serum BUN level [1, 12]: significantly improved | serum creatinine level [1, 12]: significantly improved | survival rate ([2]; 25HC3S 25 mg/kg ip 2 and 24 hrs after ATMP 600 mg/kg, monitored 10 days, vs control): much higher than that of control animals | liver function (damage) markers ALT, AST, AKP and ADH ([2]; surviving mice, sera at 48 hours, vs control (ATMP and vehicle)): lower values of each enzyme | survival (mortality monitored) ([3]; LPS 30 mg/kg IV): lived significantly longer | survival (mortality monitored) ([3]; LPS 40 mg/kg IV): lived significantly longer | decrease of serum ALT [4, 13]: 58% | decrease of serum AST [4, 13]: 45% | decrease of serum LDH [4, 13]: 60% | markers of liver and kidney function (ALT, AST, ALK, LDH, BUN, glucose) ([4]; 25HC3S 0.5 hours after ATMP, in 48 hrs): returned most markers of liver and kidney function to normal levels | brain lesion volume ([5]; 24 hours after tMCAO, vs vehicle, difference not statistically significant): smaller | tissue viability (T2 relaxation time) ([5]; 24 hours post tMCAO): statistically higher tissue viability | % edema [5, 14]: smaller | edema volume [5, 14]: smaller | 7-point Neuroscore [5, 15]: no statistically significant differences | 20-point Neuroscore [5, 15]: no statistically significant differences | Limb Placing test [5, 15]: no statistically significant differences | brain lesion volume ([5]; 7 days after tMCAO, vs vehicle, difference not statistically significant): smaller | % edema ([5]; 7 days post tMCAO): nearly recovered; also recorded: some higher levels of edema | edema volume ([5]; 7 days post tMCAO): nearly recovered; also recorded: some higher levels of edema | tissue viability (T2 relaxation time) ([5]; 7 days post tMCAO): statistically higher tissue viability | irritation, discomfort or adverse side effects ([5]; ip injection in tMCAO rats): did not cause irritation, discomfort, or any adverse side effects | body weight recovery ([5]; starting from Day 4 after tMCAO, vs vehicle): faster recovery in body weights | size of infarction ([6]; 25HC3S 25 mg/kg i.p. just before or 16-20 h before ischemia/reperfusion, vs vehicle): no statistically significant difference | 24-hour survival rate ([6]; 25HC3S 25 mg/kg i.p., vehicle group 64%): 86% | half-life ([7]; female, mouse, blood, FIG. 3A, read-out: half life in circulation (converted)): ~1800 min | tissue distribution ([7]; indicated tissues, FIG. 3B): widely distributed in different tissues | survival rate (mortality induced by LPS): 100% | adverse effects ([8]; single oral dose 30, 100, 300, 600 mg suspension, monitored 7 days): No adverse effects were observed | tolerability ([8]; single oral dose 30-600 mg): well tolerated | bioavailability ([8]; single oral dose, plasma samples (FIG. 10)): high bioavailability | attenuation of body weight loss [9]: no statistically significant attenuation | attenuation of elevated clinical chemistry parameters (LDH, AST and ALT) [9]: no statistically significant attenuation

— patent publication US11612609B2, “Uses of oxygenated cholesterol sulfates (OCS)” (Virginia Commonwealth University, priority 2013, dated 2023)
